From US6653081B2, “Methods for monitoring antiretroviral therapy and guiding therapeutic decision in the treatment of HIV/AIDS” (ViroLogic, Inc., priority 2000, dated 2003)

system: RTV-I135T; assay: Phenotypic susceptibility assay, RTV-I135T; type: cell-based, HIV-1; conditions: site-directed I135T alone
From the text: (§1) The resistance test vectors containing a functional luciferase gene cassette were constructed and host cells were transfected with the resistance test vector DNA. The resistant test vectors contained patient-derived reverse transcriptase and protease sequences that were either susceptible or resistant to the antiretroviral agents, such as nucleoside reverse transcriptase inhibitors, (NRTIs) non-nucleoside reverse transcriptase inhibitors […] protease inhibitors. The resistance test vector viral particles produced by transfecting the resistance test vector DNA into host cells, either in the presence or absence of PRIs, were used to infect target host cells grown either in the absence of NRTIs or NNRTIs, or in the presence of increasing concentrations of the drug. The amount of luciferase activity produced in infected target host cells in the presence of varying concentrations of drug was compared to the amount of luciferase produced in infected target host cells in the absence of drug. “Drug resistance” was measured as the amount of drug required to inhibit by 50% the luciferase activity detected in the absence of drug (inhibitory concentration 50%, IC50). The IC50 values were determined by plotting percent drug inhibition vs. log10 drug concentration. Stimulation of viral replication was measured as the percent increase in luciferase activity detected when infection occurs in the presence of drug as compared to in the absence of drug.
(§2) Host cells were seeded in 10-cm-diameter dishes and were transfected several days after plating with resistance test vector plasmid DNA and the envelope expression vector. Transfections were performed using a calcium-phosphate precipitation procedure. The cell culture media containing the DNA precipitate was replaced with fresh medium, from one to 24 hours, after transfection. Cell culture media containing resistance test vector viral particles was harvested one to four days after transfection and was passed through a […] filter before being used to infect target host cells, or being stored at −80° C. HIV capsid protein (p24) levels in the harvested cell culture media were determined by an EIA method as described by the manufacturer (SAIC; Frederick, Md.). Before infection, target cells (293 and 293/T) were plated in cell culture media. Control infections were performed using cell culture media from mock transfections (no DNA) or transfections containing the resistance test vector plasmid DNA without the envelope expression plasmid. One to three or more days after infection, the media was removed and cell lysis buffer (Promega) was added to each well. Cell lysates were assayed for luciferase activity (FIG. 3). The inhibitory effect of the drug was determined using the following equation:
(§3) % luciferase inhibition=1−(RLUluc[drug]÷RLUluc)×100
(§4) where RLUluc [drug] is the Relative Light Unit of luciferase activity in infected cells in the presence of drug, and RLUluc is the Relative Light Unit of luciferase activity in infected cells in the absence of drug. IC50values were obtained from the sigmoidal curves that were generated from the data by plotting the percent inhibition of luciferase activity vs. the log10 drug concentration. The percent luciferase stimulation is the negative of the % inhibition calculated using the formula above.
(§5) A resistance test vector containing a single mutation, I135T, (RTV-I135T) was constructed and tested in the phenotypic assay described earlier. The results were compared to those determined using a genetically defined resistance test vector that was wild type at position 135. We determined the pattern of phenotypic susceptibility to the NNRTIs, delavirdine, nevirapine and efavirenz, in RTV-I135T.

SMILES | drug-dependent stimulation of viral replication | reductions in susceptibility compared to wild type control RTV
O=C1Nc2ccc(Cl)cc2[C@@](C#CC2CC2)(C(F)(F)F)O1 [efavirenz] | no drug-dependent stimulation | no reductions
CC(C)Nc1cccnc1N1CCN(C(=O)c2cc3cc(NS(C)(=O)=O)ccc3[nH]2)CC1 [delavirdine] | no drug-dependent stimulation | no reductions
Cc1ccnc2c1NC(=O)c1cccnc1N2C1CC1 [nevirapine] | no drug-dependent stimulation | no reductions

system: RTV-1033-3/184V; assay: Phenotypic susceptibility assay, RTV-1033-3/184V; type: cell-based, HIV; conditions: RTV-1033-3 plus M184V
From the text: as §1, §2, §3, §4
(§6) A resistance test vector containing all of the mutations present in RTV-1033-3 in addition to M184V (RTV-1033-3/184V) was constructed and tested using the phenotypic assay described earlier. The results were compared to those determined using the parent RTV-1033-3. We determined the pattern of phenotypic susceptibility to the NNRTIs, delavirdine, nevirapine and efavirenz, in the mutated vector, RTV-1033-3/184V.

SMILES | drug-dependent stimulation of viral replication [%] | reduction in susceptibility compared to wild type control RTV [fold]
O=C1Nc2ccc(Cl)cc2[C@@](C#CC2CC2)(C(F)(F)F)O1 [efavirenz] | ~80 | 28
CC(C)Nc1cccnc1N1CCN(C(=O)c2cc3cc(NS(C)(=O)=O)ccc3[nH]2)CC1 [delavirdine] | ~100 | 5
Cc1ccnc2c1NC(=O)c1cccnc1N2C1CC1 [nevirapine] | ~100 | > 600

system: RTV-010829; assay: Phenotypic susceptibility assay, RTV-010829; type: cell-based, HIV; conditions: patient 10829
From the text: as §1, §2, §3, §4
A resistance test vector was constructed as described in Example 1 from a virus sample obtained from patient 10829. The prior and current treatment regimens are unknown. Isolation of viral RNA and RT/PCR was used to generate a patient derived segment (PDS) that comprised viral sequences coding for all of PR and aa 1-313 of RT. The PDS were inserted into an indicator gene viral vector to generate a resistance test vector designated RTV-010829. RTV-010829 was then tested in a phenotypic assay to determine accurately and quantitatively the level of susceptibility to a panel of anti-retroviral drugs. […]

SMILES | drug-dependent stimulation of viral replication [%]
O=C1Nc2ccc(Cl)cc2[C@@](C#CC2CC2)(C(F)(F)F)O1 [efavirenz] | ~80
CC(C)Nc1cccnc1N1CCN(C(=O)c2cc3cc(NS(C)(=O)=O)ccc3[nH]2)CC1 [delavirdine] | ~100
Cc1ccnc2c1NC(=O)c1cccnc1N2C1CC1 [nevirapine] | ~100

same assay, conditions: patient 10829; K103N, V245E, I270M

SMILES | decrease in susceptibility [fold]
O=C1Nc2ccc(Cl)cc2[C@@](C#CC2CC2)(C(F)(F)F)O1 [efavirenz] | > 450
CC(C)Nc1cccnc1N1CCN(C(=O)c2cc3cc(NS(C)(=O)=O)ccc3[nH]2)CC1 [delavirdine] | > 250
Cc1ccnc2c1NC(=O)c1cccnc1N2C1CC1 [nevirapine] | > 600

system: RTV-1033-3/106V/227F/286T; assay: Phenotypic susceptibility assay, RTV-1033-3/106V/227F/286T; type: cell-based, HIV; conditions: RTV-1033-3 with V106A, F227L and T286A reverted
From the text: as §1, §2, §3, §4
as §6, with “except for V106A, F227L and T286A (RTV-1033-3/106V/227F/286T)” for “in addition to M184V (RTV-1033-3/184V)”, “reverted” for “mutated”, “RTV-1033-3/106V/227F/286T.” for “RTV-1033-3/184V.”

SMILES | drug-dependent stimulation of viral replication [%] | reductions in susceptibility compared to wild type control RTV [fold]
O=C1Nc2ccc(Cl)cc2[C@@](C#CC2CC2)(C(F)(F)F)O1 [efavirenz] | ~50 | 5
CC(C)Nc1cccnc1N1CCN(C(=O)c2cc3cc(NS(C)(=O)=O)ccc3[nH]2)CC1 [delavirdine] | ~60 | 3
Cc1ccnc2c1NC(=O)c1cccnc1N2C1CC1 [nevirapine] | ~70 | 6

system: RTV-I135T/V245E; assay: Phenotypic susceptibility assay, RTV-I135T/V245E; type: cell-based, HIV-1; conditions: site-directed I135T + V245E
From the text: as §1, §2, §3, §4
as §5, with “two mutations, I135T and V245E (RTV-I135T/V245E)” for “a single mutation, I135T, (RTV-I135T)”, “positions 135 and 245.” for “position 135.”, “RTV-I135T/V245E.” for “RTV-I135T.”

SMILES | drug-dependent stimulation of viral replication | reductions in susceptibility compared to wild type control RTV [fold]
O=C1Nc2ccc(Cl)cc2[C@@](C#CC2CC2)(C(F)(F)F)O1 [efavirenz] | no drug-dependent stimulation | 2
CC(C)Nc1cccnc1N1CCN(C(=O)c2cc3cc(NS(C)(=O)=O)ccc3[nH]2)CC1 [delavirdine] | no drug-dependent stimulation | 2
Cc1ccnc2c1NC(=O)c1cccnc1N2C1CC1 [nevirapine] | no drug-dependent stimulation | 2.5

system: RTV-1033-3/106V/227F; assay: Phenotypic susceptibility assay, RTV-1033-3/106V/227F; type: cell-based, HIV; conditions: RTV-1033-3 with V106A and F227L reverted
From the text: as §1, §2, §3, §4
as §6, with “except for V106A and F227L (RTV-1033-3/106V/227F)” for “in addition to M184V (RTV-1033-3/184V)”, “reverted” for “mutated”, “RTV-1033-3/106V/227F.” for “RTV-1033-3/184V.”

SMILES | drug-dependent stimulation of viral replication [%] | reductions in susceptibility compared to wild type control RTV [fold]
O=C1Nc2ccc(Cl)cc2[C@@](C#CC2CC2)(C(F)(F)F)O1 [efavirenz] | ~80 | 6
CC(C)Nc1cccnc1N1CCN(C(=O)c2cc3cc(NS(C)(=O)=O)ccc3[nH]2)CC1 [delavirdine] | ~80 | 6
Cc1ccnc2c1NC(=O)c1cccnc1N2C1CC1 [nevirapine] | ~110 | 13
